US6517836B1, “Nitrophenylaziridine compounds and their use as prodrugs” (Auckland Uniservices Limited, priority 1998, dated 2003)
Read-outs that look alike come from different tables or passages of the source.

Tests used:
[1] = tested on: Chinese hamster fibroblast NR+ line (T79-A3), NR transfectant; test: Cytotoxicity, 18 h drug exposure, V79 NR+ line (T79-A3); type: cell-based; conditions: for IC50: read-out: V-79 NR+ IC50; for V-79 ratio of IC50s: T78-1 vs T79-A3, inter-experiment average
Description: (§1) The Chinese hamster fibroblast NR− line (T78-1) is a V79/4 Chinese hamster fibroblast transfected with an empty shuttle vector, while the NR+ line (T79-A3) is the corresponding NR transfectant. The human colon carcinoma NR− line (WIDR) is wild-type, while the NR+ line (WC14 10) is the corresponding NR transfectant. The human ovarian carcinoma NR− line (SKOV3) is wild-type, while the NR+ line (SC3.2) is the corresponding NR transfectant. EMT6 is a mouse mammary carcinoma line, and EN2A is the NR-transformed counterpart.

[2] = tested on: human colon carcinoma NR− line (WIDR), wild-type; test: Cytotoxicity, 18 h drug exposure, WiDr NR− line; type: cell-based; conditions: read-out: WiDr NR− IC50
Description: as §1

[3] = tested on: Chinese hamster fibroblast NR− line (T78-1), V79/4 transfected with an empty shuttle vector; test: Cytotoxicity, 18 h drug exposure, V79 NR− line (T78-1); type: cell-based; conditions: read-out: V-79 NR− IC50
Description: as §1

[4] = tested on: human ovarian carcinoma NR− line (SKOV3), wild-type; test: Cytotoxicity, 18 h drug exposure, SKOV3 NR− line; type: cell-based; conditions: read-out: SKOV NR− IC50
Description: as §1

[5] = tested on: human ovarian carcinoma NR+ line (SC3.2), NR transfectant; test: Cytotoxicity, 18 h drug exposure, SKOV NR+ line (SC3.2); type: cell-based; conditions: for IC50: read-out: SKOV NR+ IC50; for SKOV ratio of IC50s: SKOV3 vs SC3.2, inter-experiment average
Description: as §1

[6] = tested on: human colon carcinoma NR+ line (WC14 10), NR transfectant; test: Cytotoxicity, 18 h drug exposure, WiDr NR+ line (WC14 10); type: cell-based; conditions: for IC50: read-out: WiDr NR+ IC50; for WiDr ratio of IC50s: WIDR vs WC14 10, inter-experiment average
Description: as §1

[7] = tested on: EN2A, NR-transformed counterpart of EMT6; test: Cytotoxicity, 18 h drug exposure, EMT6 NR+ line (EN2A); type: cell-based, mouse; conditions: for EMT6 ratio of IC50s: EMT6 vs EN2A, inter-experiment average; for IC50: Mus musculus, read-out: EMT6 NR+ IC50
Description: as §1

[8] = tested on: EMT6 mouse mammary carcinoma line; test: Cytotoxicity, 18 h drug exposure, EMT6 NR− line; type: cell-based; conditions: Mus musculus, read-out: EMT6 NR− IC50
Description: as §1

[9] = Cricetulus griseus, Fibroblast, T79-A3 cells, 18 h drug exposure
[10] = Homo sapiens, WIDR cells, 18 h drug exposure
[11] = Cricetulus griseus, T78-1 cells, 18 h drug exposure
[12] = Homo sapiens, SK-OV-3, SKOV3 cells, 18 h drug exposure
[13] = Homo sapiens, SC3.2 cells, 18 h drug exposure
[14] = Homo sapiens, WiDr, WC14 10 cells, 18 h drug exposure
[15] = T79-A3 cells, 18 h drug exposure
[16] = T78-1 cells, 18 h drug exposure
[17] = SKOV3 cells, 18 h drug exposure
[18] = SC3.2 cells, 18 h drug exposure
[19] = WC14 10 cells, 18 h drug exposure
[20] = EMT6, EN2A cells, 18 h drug exposure
[21] = Cricetulus griseus, Fibroblast, 18 h
[22] = Cricetulus griseus, T78-1, 18 h

Compound	IC50 [1, 9]	V-79 ratio of IC50s [1]	IC50 [2, 10]	IC50 [3, 11]	IC50 [4, 12]	IC50 [5, 13]	SKOV ratio of IC50s [5]	IC50 [6, 14]	WiDr ratio of IC50s [6]	IC50 [1, 15]	IC50 ([2]; WIDR cells, 18 h drug exposure)	IC50 [3, 16]	IC50 [4, 17]	IC50 [5, 18]	IC50 [6, 19]	further results
O=C(NCCn1ccnc1)c1cc(N2CC2)c([N+](=O)[O-])cc1[N+](=O)[O-] [Compound 7, 5-(aziridin-1-yl)-N-[2-(imidazol-1-yl)ethyl]-2,4-dinitrobenzamide]	0.39 µM	1170	47 µM	420 µM	61 µM	0.58 µM	104	1 µM	48	–	–	–	–	–	–	–
NC(=O)c1ccc([N+](=O)[O-])c(N2CC2)c1 [Compound 9, 3-(aziridin-1-yl)-4-nitrobenzamide]	62 µM	1.4	102 µM	108 µM	93 µM	61 µM	1.6	62 µM	1.6	–	–	–	–	–	–	–
O=C(NCCCCN1CCOCC1)c1cc(N2CC2)c([N+](=O)[O-])cc1[N+](=O)[O-] [Compound 6, N-[4-(4-morpholino)butyl]-5-(aziridin-1-yl)-2,4-dinitrobenzamide]	–	1210	–	–	–	–	510	–	93	0.25 µM	28 µM	237 µM	151 µM	0.3 µM	0.31 µM	–
O=C(NCCCN1CCOCC1)c1cc(N2CC2)c([N+](=O)[O-])cc1[N+](=O)[O-] [Compound 5, 5-(aziridin-1-yl)-N-[3-(4-morpholino)propyl]-2,4-dinitrobenzamide]	–	6210	–	–	–	–	730	–	120	0.048 µM	30 µM	255 µM	122 µM	0.15 µM	0.23 µM	–
O=C(NCC(O)CO)c1cc(N2CC2)c([N+](=O)[O-])cc1[N+](=O)[O-] (stereo not drawn) [Compound 2, N-(2,3-dihydroxypropyl)-5-(aziridin-1-yl)-2,4-dinitrobenzamide]	0.71 µM	381	147 µM	210 µM	170 µM	2.3 µM	84	3.7 µM	49	–	–	–	–	–	–	EMT6 ratio of IC50s [7]: 86; IC50 [7, 20]: 1.1 µM; IC50 ([8]; EMT6 cells, 18 h drug exposure): 90 µM
NC(=O)c1c([N+](=O)[O-])ccc(N2CC2)c1[N+](=O)[O-] [Compound 13, 3-(aziridin-1-yl)-2,6-dinitrobenzamide]	135 µM	3.8	312 µM	437 µM	584 µM	66 µM	9.5	58 µM	5.9	–	–	–	–	–	–	EMT6 ratio of IC50s [7]: 10; IC50 [7, 20]: 27 µM; IC50 ([8]; EMT6 cells, 18 h drug exposure): 287 µM
NC(=O)c1cc(N2CC2)ccc1[N+](=O)[O-] [Compound 11, 5-(aziridin-1-yl)-2-nitrobenzamide]	81 µM	1.5	126 µM	121 µM	129 µM	102 µM	1.4	89 µM	1.4	–	–	–	–	–	–	–
NC(=O)c1cc(N2CC2)c([N+](=O)[O-])cc1[N+](=O)[O-] [CB1954, 5-(aziridin-1-yl)-2,4-dinitrobenzamide, reference compound]	–	1200	–	–	–	–	357	–	51	–	–	–	–	–	–	EMT6 ratio of IC50s [7]: 1100; IC50 ([7]; EMT6, 18 h): 0.08 µM; IC50 [1, 21]: 0.3 µM; IC50 ([2]; Homo sapiens, WiDr, 18 h): 56 µM; IC50 ([8]; EMT6, 18 h): 90 µM; IC50 [3, 22]: 395 µM; IC50 ([4]; Homo sapiens, SK-OV-3, 18 h): 182 µM; IC50 ([5]; Homo sapiens, 18 h): 0.58 µM; IC50 ([6]; Homo sapiens, WiDr, 18 h): 1.2 µM
CS(=O)(=O)c1cc([N+](=O)[O-])c(C(N)=O)cc1N1CC1 [Compound 12, 5-(aziridin-1-yl)-4-(methylsulfonyl)-2-nitrobenzamide]	40 µM	12	224 µM	419 µM	393 µM	22 µM	19	22 µM	10	–	–	–	–	–	–	–
O=C(NCCN1CCOCC1)c1cc([N+](=O)[O-])cc([N+](=O)[O-])c1N1CC1 [Compound 18, 2-(aziridin-1-yl)-N-[2-(4-morpholino)ethyl]-3,5-dinitrobenzamide]	–	>68	–	–	–	–	>72	–	32	7.3 µM	521 µM	> 500 µM	> 500 µM	11 µM	18 µM	–
COC(=O)CCNC(=O)c1cc(N2CC2)c([N+](=O)[O-])cc1[N+](=O)[O-] [Compound 8, 5-(aziridin-1-yl)-N-[2-(methoxycarbonyl)ethyl]-2,4-dinitrobenzamide]	–	1580	–	–	–	–	270	–	51	–	–	–	–	–	–	IC50 [1, 21]: 0.4 µM; IC50 ([2]; Homo sapiens, WiDr, 18 h): 124 µM; IC50 [3, 22]: 581 µM; IC50 ([4]; Homo sapiens, SK-OV-3, 18 h): 677 µM; IC50 ([5]; Homo sapiens, 18 h): 2.5 µM; IC50 ([6]; Homo sapiens, WiDr, 18 h): 2.3 µM
CN(CCN1CCOCC1)C(=O)c1cc(N2CC2)c([N+](=O)[O-])cc1[N+](=O)[O-] [Compound 4, 5-(aziridin-1-yl)-N-methyl-N-[2-(4-morpholino)ethyl]-2,4-dinitrobenzamide]	–	235	–	–	–	–	46	–	21	1.8 µM	170 µM	364 µM	533 µM	13 µM	8.1 µM	–
O=C(NCC(O)CO)c1cc([N+](=O)[O-])cc([N+](=O)[O-])c1N1CC1 (stereo not drawn) [Compound 17, 2-(aziridin-1-yl)-N-(2,3-dihydroxypropyl)-3,5-dinitrobenzamide]	6 µM	208	878 µM	1440 µM	1300 µM	7.3 µM	184	12 µM	71	–	–	–	–	–	–	–
